As a reminder, the pIC50 is the IC50 on a negative log10 scale, so that one unit is a factor of ten.

This is an account of results in patent US20090311217A1, “3-SUBSTITUTED-1H-INDOLE COMPOUNDS, THEIR USE AS MTOR KINASE AND PI3 KINASE INHIBITORS, AND THEIR SYNTHESES” (priority 2008, published 2009).

Holding throughout (format): biochemical
One assay has as its target PI3K-gamma (Homo sapiens, UniProt P48736). As to the kind of experiment: PI3K-gamma fluorescence polarization assay. The settings on record: PI3Kγ Avg. IC50. In short, it runs like this: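 Enzyme 5 ng; substrate diC8-PI(4,5)P2 2.5 μM; ATP 25 μM; 5 mM HEPES pH 7, 2.5 mM MgCl2; DMSO ≤2%; 1 h, 25° C. Quench 10 mM EDTA. Detect with GRP1 PH domain 100 nM + TMR-IP4 probe 5 nM by polarization.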
On the technique in general: Fluorescence polarisation rises when a labelled molecule tumbles more slowly, as on binding a larger partner.

Another assay deals with PI3K-alpha (Homo sapiens, UniProt P42336). As to the kind of experiment: PI3K-alpha fluorescence polarization assay. The settings on record: read-out: PI3Kα Avg. IC50.
Sequence of PI3K-alpha (P42336 whole entry, species assumed): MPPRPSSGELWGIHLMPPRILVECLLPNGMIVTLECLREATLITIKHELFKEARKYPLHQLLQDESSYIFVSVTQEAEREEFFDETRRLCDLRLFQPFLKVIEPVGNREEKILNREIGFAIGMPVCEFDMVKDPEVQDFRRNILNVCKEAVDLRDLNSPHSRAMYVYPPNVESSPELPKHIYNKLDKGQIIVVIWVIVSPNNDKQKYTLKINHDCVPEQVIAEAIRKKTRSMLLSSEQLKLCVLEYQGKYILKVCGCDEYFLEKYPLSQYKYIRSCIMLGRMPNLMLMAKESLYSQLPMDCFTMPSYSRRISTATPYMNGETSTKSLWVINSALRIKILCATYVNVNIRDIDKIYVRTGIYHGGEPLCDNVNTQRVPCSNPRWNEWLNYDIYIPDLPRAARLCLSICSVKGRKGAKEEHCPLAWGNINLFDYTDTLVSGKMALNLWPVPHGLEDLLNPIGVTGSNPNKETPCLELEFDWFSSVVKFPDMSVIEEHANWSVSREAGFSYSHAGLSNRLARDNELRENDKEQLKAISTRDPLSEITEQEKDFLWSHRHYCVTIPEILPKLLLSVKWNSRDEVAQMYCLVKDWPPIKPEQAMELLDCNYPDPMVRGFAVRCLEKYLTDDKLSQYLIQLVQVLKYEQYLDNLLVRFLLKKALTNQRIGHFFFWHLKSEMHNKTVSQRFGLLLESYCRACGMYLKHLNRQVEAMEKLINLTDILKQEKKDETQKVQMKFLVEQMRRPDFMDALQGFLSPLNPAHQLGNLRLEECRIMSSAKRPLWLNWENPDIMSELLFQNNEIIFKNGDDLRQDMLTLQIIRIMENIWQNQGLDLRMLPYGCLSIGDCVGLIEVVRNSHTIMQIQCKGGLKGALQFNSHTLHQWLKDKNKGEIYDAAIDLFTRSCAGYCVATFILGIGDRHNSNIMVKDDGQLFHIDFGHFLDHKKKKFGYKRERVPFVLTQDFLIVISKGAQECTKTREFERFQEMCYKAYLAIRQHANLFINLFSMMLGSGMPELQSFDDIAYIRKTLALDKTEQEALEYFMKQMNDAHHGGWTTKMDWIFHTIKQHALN
Sequence of PI3K-alpha (P27986 whole entry partner, species assumed): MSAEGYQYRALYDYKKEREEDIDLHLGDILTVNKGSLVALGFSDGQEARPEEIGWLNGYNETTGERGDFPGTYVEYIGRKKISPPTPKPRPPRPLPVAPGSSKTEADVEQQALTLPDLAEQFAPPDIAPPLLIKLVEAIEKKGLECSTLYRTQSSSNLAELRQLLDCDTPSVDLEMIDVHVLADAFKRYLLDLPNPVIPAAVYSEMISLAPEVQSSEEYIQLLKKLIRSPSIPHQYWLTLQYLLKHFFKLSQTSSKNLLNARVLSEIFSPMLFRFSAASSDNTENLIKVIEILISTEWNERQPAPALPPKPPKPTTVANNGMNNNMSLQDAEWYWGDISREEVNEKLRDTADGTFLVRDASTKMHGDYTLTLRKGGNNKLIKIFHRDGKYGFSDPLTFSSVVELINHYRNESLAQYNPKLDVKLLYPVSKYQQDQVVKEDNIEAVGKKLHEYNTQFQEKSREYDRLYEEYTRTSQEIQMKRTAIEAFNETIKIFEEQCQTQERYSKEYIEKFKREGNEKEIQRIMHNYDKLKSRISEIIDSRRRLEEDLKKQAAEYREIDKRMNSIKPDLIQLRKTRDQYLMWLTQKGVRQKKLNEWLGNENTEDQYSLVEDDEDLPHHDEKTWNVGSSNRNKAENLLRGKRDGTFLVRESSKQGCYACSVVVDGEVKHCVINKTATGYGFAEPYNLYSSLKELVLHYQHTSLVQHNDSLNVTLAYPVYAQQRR
Another assay addresses T1, human TOR (Homo sapiens, UniProt P42345).
T1 construct: FLAG
As to the kind of experiment: mTOR enzyme assay (DELFIA, His6-S6K substrate). As to conditions: read-out: mTOR Kinase Avg. IC50.

pIC50: −log10 of the molar value.

Sequence of PI3K-gamma (P48736 whole entry, species assumed, the tested form may be a part): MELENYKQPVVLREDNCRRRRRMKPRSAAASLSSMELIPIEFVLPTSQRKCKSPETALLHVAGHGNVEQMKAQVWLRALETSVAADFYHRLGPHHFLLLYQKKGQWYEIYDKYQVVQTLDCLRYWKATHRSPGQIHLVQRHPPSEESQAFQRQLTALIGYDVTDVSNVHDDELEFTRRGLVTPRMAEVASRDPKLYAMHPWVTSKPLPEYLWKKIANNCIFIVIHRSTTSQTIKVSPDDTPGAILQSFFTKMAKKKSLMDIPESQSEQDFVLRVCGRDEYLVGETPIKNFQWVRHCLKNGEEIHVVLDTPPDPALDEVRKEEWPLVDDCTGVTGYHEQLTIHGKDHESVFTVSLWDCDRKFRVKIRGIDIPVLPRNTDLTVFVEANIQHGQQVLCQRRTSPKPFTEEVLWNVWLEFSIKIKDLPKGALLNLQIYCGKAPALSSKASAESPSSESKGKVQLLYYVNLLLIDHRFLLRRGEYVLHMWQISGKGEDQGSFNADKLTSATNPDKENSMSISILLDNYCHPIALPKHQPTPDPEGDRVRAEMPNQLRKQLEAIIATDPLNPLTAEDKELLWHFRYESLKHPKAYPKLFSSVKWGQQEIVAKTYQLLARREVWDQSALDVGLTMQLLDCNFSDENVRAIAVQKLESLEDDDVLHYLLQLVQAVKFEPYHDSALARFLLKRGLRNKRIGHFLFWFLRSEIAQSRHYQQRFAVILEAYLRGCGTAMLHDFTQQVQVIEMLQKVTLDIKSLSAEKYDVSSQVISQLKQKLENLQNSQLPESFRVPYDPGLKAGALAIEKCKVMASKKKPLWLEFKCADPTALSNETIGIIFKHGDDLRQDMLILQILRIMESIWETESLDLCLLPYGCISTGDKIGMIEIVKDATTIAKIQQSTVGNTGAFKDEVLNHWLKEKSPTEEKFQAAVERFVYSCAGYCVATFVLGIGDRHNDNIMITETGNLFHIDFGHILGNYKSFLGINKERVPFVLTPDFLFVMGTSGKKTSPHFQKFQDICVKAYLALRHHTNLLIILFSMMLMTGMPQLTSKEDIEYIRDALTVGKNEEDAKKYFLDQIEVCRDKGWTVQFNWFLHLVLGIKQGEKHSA

For `COc1ccc2c(c1)c(/C=C1\Oc3cc(O)cc(O)c3C1=O)c(C1CCCCC1)n2CCN1CCN(C)CC1` [Example 447, (2Z)-2-({2-Cyclohexyl-5-methoxy-1-[2-(4-methylpiperazin-1-yl)ethyl]-1H-indol-3-yl}methylene)-4,6-dihydroxy-1-benzofuran-3(2H)-one], the results for the pIC50 on PI3K-gamma, on PI3K-alpha and at human TOR were 6.98, 8.77 and 8.89, respectively.
For the molecule `Cn1cc(/C=C2\Oc3cc(O)cc(O)c3C2=O)c2c(-c3ccc(-c4ccc(CN)cc4)cc3)cccc21` [Example 300, (2Z)-2-({4-[4′-(Aminomethyl)biphenyl-4-yl]-1-methyl-1H-indol-3-yl}methylene)-4,6-dihydroxy-1-benzofuran-3(2H)-one], the pIC50 against PI3K-gamma is 5.02; at PI3K-alpha it was 5.54; on human TOR it was 6.88.
As to `Cn1cc(/C=C2\Oc3cc(O)cc(O)c3C2=O)c2c(-c3ccc(N4CCOCC4)nc3)cccc21` [Example 386, (2Z)-4,6-Dihydroxy-2-{[1-methyl-4-(6-morpholin-4-ylpyridin-3-yl)-1H-indol-3-yl]methylene}-1-benzofuran-3(2H)-one], the pIC50 against PI3K-gamma was 5.24; at PI3K-alpha it was 5.72; at human TOR it was 7.16.
Taken in the same sequence, the figures for `COc1ccc2c(c1)c(/C=C1\Oc3cc(O)c(Br)cc3C1=O)c(C)n2CCCN(C)C` [Example 350, (2Z)-5-Bromo-2-({1-[3-(dimethylamino)propyl]-5-methoxy-2-methyl-1H-indol-3-yl}methylene)-6-hydroxy-1-benzofuran-3(2H)-one] were 5.16, 6.94 and below 4.70.
In the case of `Cn1cc(/C=C2\Oc3cc(O)cc(O)c3C2=O)c2c(-c3ccc(C(=O)NCc4ccco4)cc3)cccc21` [Example 399, 4-{3-[(Z)-(4,6-dihydroxy-3-oxo-1-benzofuran-2(3H)-ylidene)methyl]-1-methyl-1H-indol-4-yl}-N-(2-furylmethyl)benzamide], the figures for the pIC50 at PI3K-gamma, at PI3K-alpha and at human TOR were below 5.00, 6.09 and 7.16, respectively.
The matching figures for `Cn1cc(/C=C2\Oc3cc(O)cc(O)c3C2=O)c2c(-c3ccccc3F)cccc21` [Example 366, (2Z)-2-{[4-(2-Fluorophenyl)-1-methyl-1H-indol-3-yl]methylene}-4,6-dihydroxy-1-benzofuran-3(2H)-one]: 5.41, 5.96 and 7.12.
The matching figures for `Cn1c(-c2ccccc2)c(/C=C2\Oc3cc(O)cc(O)c3C2=O)c2c(C#N)cccc21` [Example 437, 3-[(Z)-(4,6-dihydroxy-3-oxo-1-benzofuran-2(3H)-ylidene)methyl]-1-methyl-2-phenyl-1H-indole-4-carbonitrile]: below 5.00, 5.80 and above 7.64.
Take `CCn1c(C)c(/C=C2\Oc3ccc(NC(=O)Nc4ccc(OCCN(C)C)cc4)cc3C2=O)c2cc(OC)ccc21` [Compound 667, 1-{4-[2-(dimethylamino)ethoxy]phenyl}-3-{(2Z)-2-[(1-ethyl-5-methoxy-2-methyl-1H-indol-3-yl)methylidene]-3-oxo-2,3-dihydro-1-benzofuran-5-yl}urea]: the pIC50 was 7.95 on PI3K-gamma, 8.73 on PI3K-alpha and 6.82 on human TOR.
Consider `COc1cc(F)c2[nH]c(-c3c(C)nn(C)c3C)c(/C=C3\Oc4ccc(NC(=O)Nc5ccc(C(=O)N6CCN(CCO)CC6)cc5)cc4C3=O)c2c1` [Compound 721, 1-[(2Z)-2-{[7-fluoro-5-methoxy-2-(1,3,5-trimethyl-1H-pyrazol-4-yl)-1H-indol-3-yl]methylidene}-3-oxo-2,3-dihydro-1-benzofuran-5-yl]-3-(4-{[4-(2-hydroxyethyl)piperazin-1-yl]carbonyl}phenyl)urea], for which the pIC50 against PI3K-gamma was 8.65; on PI3K-alpha, 9.22; at human TOR it was 9.00.
